# Where a name gives a salt, the structure may show the parent alone. Read-outs that look alike come from different tables or passages of the source.
# Columns and labels:
# [1] = target: T1, human NTCP (Homo sapiens, UniProt Q14973); experiment: Screening fluorescent competitive Myrcludex B-FITC binding assay (96-well, 10 µM drug)
# T1 sequence (Q14973 1-349): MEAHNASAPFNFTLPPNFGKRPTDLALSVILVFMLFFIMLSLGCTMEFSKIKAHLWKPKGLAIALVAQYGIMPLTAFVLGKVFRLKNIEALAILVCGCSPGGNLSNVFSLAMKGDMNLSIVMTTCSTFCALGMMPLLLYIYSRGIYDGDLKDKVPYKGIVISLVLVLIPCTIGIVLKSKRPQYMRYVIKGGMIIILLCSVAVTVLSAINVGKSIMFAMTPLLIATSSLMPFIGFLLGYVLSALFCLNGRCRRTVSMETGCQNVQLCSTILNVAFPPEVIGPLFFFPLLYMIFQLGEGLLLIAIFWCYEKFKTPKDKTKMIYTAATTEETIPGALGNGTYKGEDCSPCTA
# [2] = target: T1, human NTCP; experiment: Screening taurocholate uptake assay (96-well, [14C]taurocholate, 10 µM drug)
# [3] = Prestwick library screen, 10 µM drug, B-score of Myrcludex B-FITC binding
# [4] = Prestwick library screen, 10 µM drug, B-score of taurocholate uptake
# [5] = combined ranking from functional and binding assay B-scores
# [6] = screen, 10 µM drug, Myrcludex B-FITC binding
# [7] = combined ranking from functional and binding screening assays
# [8] = screen, 10 µM drug, taurocholate uptake
# [9] = Prestwick library screen, Myrcludex B-FITC binding, 10 µM drug
# [10] = Prestwick library screen, taurocholate uptake, 10 µM drug
# [11] = ranking score beside the functional and binding assay B-scores of the screen
compound,measurement,setting,value
C[C@]12Cc3c[nH]nc3C[C@@H]1CC[C@@H]1[C@@H]2CC[C@@]2(C)[C@H]1CC[C@]2(C)O [Stanozolol],B-score binding assay,[1],-2.248
same,B-score functional assay,[2],-1.951
same,Ranking score,[2],107.121
Cc1cn([C@H]2C=C[C@@H](CO)O2)c(=O)[nH]c1=O [Stavudine],B-score binding assay,[1]; [3],0.431
same,B-score functional assay,[2]; [4],0.865
same,Ranking score,[2]; [5],957.909
CC1(C)[C@H](C(=O)O)N2C(=O)C[C@H]2S1(=O)=O [Sulbactam],B-score binding assay,[1]; [6],-1.629
same,Ranking score,[2]; [7],399.332
same,B-score functional assay,[2]; [8],1.339
Nc1ccc(S(=O)(=O)Nc2ncccn2)cc1 [Sulfadiazine],B-score binding assay,[1]; [3],1.389
same,B-score functional assay,[2]; [4],0.878
same,Ranking score,[2]; [5],1074.81
COc1cc(NS(=O)(=O)c2ccc(N)cc2)nc(OC)n1 [Sulfadimethoxine],B-score binding assay,[1]; [9],-0.117
same,B-score functional assay,[2]; [10],0.762
same,Ranking score,[2]; [11],733.169
COc1ncnc(NS(=O)(=O)c2ccc(N)cc2)c1OC [Sulfadoxine],B-score binding assay,[1]; [3],0.336
same,B-score functional assay,[2]; [4],0.522
same,Ranking score,[2]; [5],887.31
[H]/N=C(/N)NS(=O)(=O)c1ccc(N)cc1 [Sulfaguanidine],B-score binding assay,[1]; [9],2.333
same,B-score functional assay,[2]; [10],-0.516
same,Ranking score,[2]; [11],669.134
Cc1ccnc(NS(=O)(=O)c2ccc(N)cc2)n1 [Sulfamerazine],B-score binding assay,[1]; [3],0.205
same,B-score functional assay,[2]; [4],1.015
same,Ranking score,[2]; [5],923.898
Cc1cc(C)nc([N-]S(=O)(=O)c2ccc(N)cc2)n1.[Na+] [Sulfamethazine sodium salt],B-score binding assay,[1]; [9],0.015
same,B-score functional assay,[2]; [10],0.394
same,Ranking score,[2]; [11],760.788
Cc1nnc(NS(=O)(=O)c2ccc(N)cc2)s1 [Sulfamethizole],B-score binding assay,[1]; [3],0.555
same,B-score functional assay,[2]; [4],1.973
same,Ranking score,[2]; [5],1054.65
COc1ccc(NS(=O)(=O)c2ccc(N)cc2)nn1 [Sulfamethoxypyridazine],B-score binding assay,[1]; [3],1.584
same,B-score functional assay,[2]; [4],0.331
same,Ranking score,[2]; [5],989.975
COc1cc(NS(=O)(=O)c2ccc(N)cc2)ncn1 [Sulfamonomethoxine],B-score binding assay,[1]; [9],0.362
same,B-score functional assay,[2]; [10],-0.097
same,Ranking score,[2]; [11],680.363
Nc1ccc(S(N)(=O)=O)cc1 [Sulfanilamide],B-score binding assay,[1]; [6],-1.742
same,Ranking score,[2]; [7],381.13
same,B-score functional assay,[2]; [8],1.042
Nc1ccc(S(=O)(=O)Nc2ccnn2-c2ccccc2)cc1 [Sulfaphenazole],B-score binding assay,[1]; [3],0.287
same,B-score functional assay,[2]; [4],0.483
same,Ranking score,[2]; [5],867.854
Nc1ccc(S(=O)(=O)Nc2ccccn2)cc1 [Sulfapyridine],B-score binding assay,[1]; [6],-1.889
same,Ranking score,[2]; [7],331.804
same,B-score functional assay,[2]; [8],0.557
Nc1ccc(S(=O)(=O)[N-]c2cnc3ccccc3n2)cc1.[Na+] [Sulfaquinoxaline sodium salt],B-score binding assay,[1]; [3],0.273
same,B-score functional assay,[2]; [4],0.659
same,Ranking score,[2]; [5],893.639
Nc1ccc(S(=O)(=O)Nc2nccs2)cc1 [Sulfathiazole],B-score binding assay,[1]; [6],0.039
same,Ranking score,[2]; [7],386.996
same,B-score functional assay,[2]; [8],-1.223
Cc1noc(NS(=O)(=O)c2ccc(N)cc2)c1C [Sulfisoxazole],B-score binding assay,[1]; [9],0.207
same,B-score functional assay,[2]; [10],-0.089
same,Ranking score,[2]; [11],663.513
COc1cc([S+](C)[O-])ccc1-c1nc2ncccc2[nH]1 (stereo not drawn) [Sulmazole],B-score binding assay,[1]; [6],-0.978
same,Ranking score,[2]; [7],402.209
same,B-score functional assay,[2]; [8],0.016
CCCCCCCCNC(C)C(O)c1ccc(SC(C)C)cc1 (stereo not drawn) [Suloctidil],B-score binding assay,[1]; [6],-2.148
same,Ranking score,[2]; [7],345.514
same,B-score functional assay,[2]; [8],4.189
CCN1CCCC1CNC(=O)c1cc(S(N)(=O)=O)ccc1OC (stereo not drawn) [Sulpiride],B-score binding assay,[1]; [9],0.598
same,B-score functional assay,[2]; [10],0.071
same,Ranking score,[2]; [11],822.943
CNS(=O)(=O)Cc1ccc2[nH]cc(CCN(C)C)c2c1 [Sumatriptan succinate],B-score binding assay,[1],0.075
same,B-score functional assay,[2],0.496
same,Ranking score,[2],810.351
Cl.O=c1[nH]oc2c1CCNC2 [THIP Hydrochloride],B-score binding assay,[1]; [6],-1.136
same,Ranking score,[2]; [7],426.394
same,B-score functional assay,[2]; [8],0.28
Nc1c2c(nc3ccccc13)CCCC2 [Tacrine hydrochloride],B-score binding assay,[1]; [9],0.755
same,B-score functional assay,[2]; [10],-0.044
same,Ranking score,[2]; [11],757.813
CC/C(=C(\c1ccccc1)c1ccc(OCCN(C)C)cc1)c1ccccc1 [Tamoxifen citrate],B-score binding assay,[1]; [9],0.04
same,B-score functional assay,[2]; [10],0.142
same,Ranking score,[2]; [11],732.268
[H]/N=C(/NCCCCC)N/N=C/c1c[nH]c2ccc(OC)cc12 [Tegaserod maleate],B-score binding assay,[1]; [3],0.318
same,B-score functional assay,[2]; [4],1.009
same,Ranking score,[2]; [5],947.847
Cc1scc2c1N(C(=O)CN1CCN(C)CC1)c1ccccc1NC2=O [Telenzepine dihydrochloride],B-score binding assay,[1]; [3],1.535
same,B-score functional assay,[2]; [4],0.592
same,Ranking score,[2]; [5],1037.8
Cn1nnc2c(C(N)=O)ncn2c1=O [Temozolomide],B-score binding assay,[1]; [3],0.415
same,B-score functional assay,[2]; [4],0.533
same,Ranking score,[2]; [5],906.245
COc1ccc2[nH]c([S+]([O-])Cc3ncc(C)c(OC)c3C)nc2n1 (stereo not drawn) [Tenatoprazole],B-score binding assay,[1],-1.326
same,B-score functional assay,[2],-1.232
same,Ranking score,[2],199.975
CN(C/C=C/C#CC(C)(C)C)Cc1cccc2ccccc12 [Terbinafine],B-score binding assay,[1]; [9],-0.07
same,B-score functional assay,[2]; [10],3.878
same,Ranking score,[2]; [11],842.5
CC(C)(C)NCC(O)c1cc(O)cc(O)c1.CC(C)(C)NCC(O)c1cc(O)cc(O)c1.O=S(=O)(O)O (stereo not drawn) [Terbutaline hemisulfate],B-score binding assay,[1]; [6],-2.462
same,Ranking score,[2]; [7],291.443
same,B-score functional assay,[2]; [8],2.669
CCC(=O)O[C@H]1CC[C@H]2[C@@H]3CCC4=CC(=O)CC[C@]4(C)[C@H]3CC[C@]12C [Testosterone propionate],B-score binding assay,[1],0.252
same,B-score functional assay,[2],-0.451
same,Ranking score,[2],567.732
CCCCNc1ccc(C(=O)OCCN(C)C)cc1.Cl [Tetracaïne hydrochloride],B-score binding assay,[1]; [3],2.591
same,B-score functional assay,[2]; [4],0.799
same,Ranking score,[2]; [5],1118.05
CN(C)[C@@H]1C(O)=C(C(N)=O)C(=O)[C@@]2(O)C(O)=C3C(=O)c4c(O)cccc4[C@@](C)(O)[C@H]3C[C@@H]12 [Tetracycline hydrochloride],B-score binding assay,[1]; [9],0.201
same,B-score functional assay,[2]; [10],0.067
same,Ranking score,[2]; [11],755.57
c1ccc2c(c1)CCCC2C1=NCCN1 (stereo not drawn) [Tetrahydrozoline hydrochloride],B-score binding assay,[1]; [3],1.943
same,B-score functional assay,[2]; [4],0.112
same,Ranking score,[2]; [5],952.65
O=C1CCC(N2C(=O)c3ccccc3C2=O)C(=O)N1 (stereo not drawn) [Thalidomide],B-score binding assay,[1]; [3],2.398
same,B-score functional assay,[2]; [4],0.111
same,Ranking score,[2]; [5],964.883
Cn1c(=O)c2[nH]cnc2n(C)c1=O [Theophylline monohydrate],B-score binding assay,[1]; [6],0.205
same,Ranking score,[2]; [7],321.683
same,B-score functional assay,[2]; [8],-1.998
Cc1ncc(C[n+]2csc(CCO)c2C)c(N)n1 [Thiamine hydrochloride],B-score binding assay,[1]; [9],-0.051
same,B-score functional assay,[2]; [10],1.872
same,Ranking score,[2]; [11],830.8
CCSc1ccc2c(c1)N(CCCN1CCN(C)CC1)c1ccccc1S2.O=C(O)CC(O)C(=O)O.O=C(O)CC(O)C(=O)O [Thiethylperazine dimalate],B-score binding assay,[1]; [3],3.252
same,B-score functional assay,[2]; [4],0.623
same,Ranking score,[2]; [5],1093.79
Nc1nc(=S)c2ncn([C@@H]3O[C@H](CO)[C@@H](O)[C@H]3O)c2[nH]1 [Thioguanosine],B-score binding assay,[1]; [6],-0.655
same,Ranking score,[2]; [7],366.332
same,B-score functional assay,[2]; [8],-0.426
S=C(NC1CCCCC1)N1CCC(c2cnc[nH]2)CC1 [Thioperamide maleate],B-score binding assay,[1]; [6],0.108
same,Ranking score,[2]; [7],451.504
same,B-score functional assay,[2]; [8],-0.893
CN1CCN(CCCN2c3ccccc3Sc3ccc(S(=O)(=O)N(C)C)cc32)CC1.CS(=O)(=O)O.CS(=O)(=O)O [Thioproperazine dimesylate],B-score binding assay,[1]; [3],1.771
same,B-score functional assay,[2]; [4],0.683
same,Ranking score,[2]; [5],1068.06
O=C(O)CNC(=O)C(CS)Cc1ccccc1 (stereo not drawn) [Thiorphan],B-score binding assay,[1]; [3],2.652
same,B-score functional assay,[2]; [4],0.09
same,Ranking score,[2]; [5],959.982
N[C@@H](Cc1cc(I)c(Oc2cc(I)c(O)c(I)c2)c(I)c1)C(=O)O [Thyroxine (L)],B-score binding assay,[1]; [6],-0.765
same,Ranking score,[2]; [7],435.061
same,B-score functional assay,[2]; [8],0.005
c1ccc2[nH]c(-c3cscn3)nc2c1 [Tiabendazole],B-score binding assay,[1]; [3],0.306
same,B-score functional assay,[2]; [4],0.849
same,Ranking score,[2]; [5],925.084
CCN(CC)CCNC(=O)c1cc(S(C)(=O)=O)ccc1OC [Tiapride hydrochloride],B-score binding assay,[1]; [3],0.4
same,B-score functional assay,[2]; [4],1.625
same,Ranking score,[2]; [5],1010.78
CC(C(=O)O)c1ccc(C(=O)c2ccccc2)s1 (stereo not drawn) [Tiaprofenic acid],B-score binding assay,[1]; [3],1.57
same,B-score functional assay,[2]; [4],0.836
same,Ranking score,[2]; [5],1082.46
